Reference: US9034825B2, “Treatment of myocardial injury with humanin analogs” (Albert Einstein College of Medicine of Yeshiva University, priority 2007, dated 2015)
Several values for one entry are separate records, joined by “and”; a condition that tells them apart may be missing. Equal entries are not always repeated.

Assays:
Sprague-Dawley rats [1] = assay: ICV infusion with pancreatic insulin clamp or hyperinsulinemic clamp (Example 5); assay type: in vivo, rat; conditions: for peripheral glucose infusion rate: ICV, hyperinsulinemic clamp
Procedure: Studies were conducted with 92 three-month-old male Sprague-Dawley rats (Charles River Laboratories). Rats were housed in individual cages and subjected to a standard light-dark cycle. Rats were prepared for clamps as described in FIG. 15A. Three weeks before the in vivo studies catheters were implanted in the third cerebral ventricle (Muzumdar et al. 2003). One week before clamp experiments, catheters were placed in the right internal jugular vein and left carotid artery (Liu et al. 1998).
(§1) A primed-continuous ICV infusion of HN, F6A-HN (total dose of 20 μg), STAT-3 inhibitor (75 pmol) (Buettner et al. 2006), or aCSF was initiated at t=0 and maintained for the remainder of the experiment (FIG. 15A). Pancreatic insulin-clamp studies or euglycemic-hyperinsulinemic clamps were performed in conscious, unrestrained, catheterized mice for last 120 minutes as described previously (Bahar et al. 2006, Muzumdar et al. 2006). In the intra-venous group, HN, F6A, Colivelin, and HNGF6A were infused intravenously and hyperinsulinemic clamps were performed as described previously (Loeb et al. 2005). Estimation of glucose, glucose fluxes, insulin, FFA were done as described previously (Loeb et al. 2005). HN measurements were performed by an in-house, ELISA utilizing affinity purified humanin antibodies that recognize both human and rat humanin and has a limit of detection of 0.1 ng/ml (Hwang, and Cohen personal communication).

3T3L1 adipocytes = assay: Glucose transport in 3T3L1 adipocytes; assay type: cell-based; conditions: 3T3L1 cells, basal and insulin-stimulated
Excerpt: Using the 3T3L1 adipocyte model, the effects of humanin on insulin action and glucose transport were investigated.

[2] = test system: Glc-6-Pase mRNA in the liver; assay: Hepatic Glc-6-Pase mRNA by qRT-PCR at end of clamp after ICV infusion; assay type: in vivo, rat; conditions: ICV infusion for 6 h
Procedure: (§2) Total RNA was extracted following Clontech's protocol. First-stranded cDNA was synthesized from 1 μg of total RNA using Superscript III (Gibco, Gaithersburg, Md.). Hepatic glucose-6-phosphatase (Glc-6-Pase) and phosphoenolpyruvate carboxykinase (PEPCK) mRNA abundance were assessed by qRT-PCR as described previously (Buettner et al., 2005). Quantification of these peptides and their copy number was normalized for GAPDH and 18S to correct for loading irregularities. The data presented are those normalized by GAPDH.

IGF-1 = IGF-1 (Homo sapiens, UniProt P05019); assay: Western ligand blots with 125I-labeled IGF-1; assay type: binding; conditions: data not shown
Sequence of IGF-1 (P05019 49-118): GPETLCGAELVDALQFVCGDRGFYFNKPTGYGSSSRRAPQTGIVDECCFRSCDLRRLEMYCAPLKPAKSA

PEPCK mRNA in the liver = assay: Hepatic PEPCK mRNA by qRT-PCR at end of clamp after ICV infusion; assay type: in vivo, rat; conditions: ICV infusion for 6 h
Procedure: as §2

Sprague-Dawley rats [3] = assay: Intravenous infusion of humanin or analogs during hyperinsulinemic clamp; assay type: in vivo, rat
Procedure: To study the acute effects of an infusion of IGFBP-3, two groups of awake, unstressed, chronically catheterized Sprague-Dawley rats (˜300 g) were studied for 300 min (n=3 in each group) under hyperinsulinemic clamp (as previously described). From 120 min the rats received a primed continuous infusion of humanin (0.375 mg/kg/hr) or saline (control) for an additional 2 h. Plasma samples for determination of [3H]glucose and [3H] water specific activities were obtained at 10-min intervals during the basal and clamp periods. Steady state conditions for the plasma glucose concentration and specific activity were achieved within 90 min in all the studies. Plasma samples for determination of HN, insulin and FFA concentrations were collected at 30-min intervals throughout the study. All determinations were also performed on portal vein blood obtained at the end of the experiments. The total amount of blood drawn during the entire study for various assays is ˜3 cc. After separation of plasma (subsequently used for analysis), the red blood cells were reconstituted in saline and infused back into the animal.
To determine if peripheral infusion of the humanin analog colivelin affects insulin action, saline or colivelin (one hundredth of the dose of humanin) was infused intravenously during hyperinsulinemic clamp to two groups of rats that were matched for body weight (˜300 gm), visceral fat (˜3.5 grams), basal glucose (˜135 mg % or 7 mM). Colivelin increased hepatic insulin sensitivity by 33% while peripheral glucose uptake was unchanged (FIG. 14).
as §1

[4] = test system: pAKT and pSTAT-3 in hepatocytes; assay: Western blot of Phospho-STAT3 and Phospho-AKT in primary hepatocytes; assay type: cell-based, rat
Procedure: Single-cell suspensions of hepatocytes were obtained from perfusions of Sprague-Dawley rats using the procedure of Berry and Friend (1969) and the perfusion mixture of Leffert et al (1979). Hepatocyte glucose production was estimated after a 24 hr treatment with HN, F6A and saline as described before (Berg et al. 2001). In a separate set of experiment, hepatocytes were lysed, and protein extracted in RIPA lysis buffer at 30, 60 and 360 min post treatment with FIN, F6A and saline. The cell lysates were then subject to western blotting for Phospho-STAT3 (Tyr705), total-STAT3, Phospho-AKT (Ser473), and total-AKT expression (antibodies purchased from Cell Signaling, #9131, #9132, #9271, #9272).

Sprague-Dawley rats [5] = assay: Intravenous infusion of humanin or analogs during hyperinsulinemic clamp; assay type: in vivo, rat; conditions: IV 0.0375 mg/kg/hr, clamp
[6] = IV during hyperinsulinemic clamp, humanin 0.375 mg/kg/hr, colivelin one hundredth of the dose of humanin

## IGFBP-3: non glycosylated hIGFBP-3 (IGF binding protein-3), provided by Celtrix
Sprague-Dawley rats [1]
  peripheral glucose infusion rate: decrease
3T3L1 adipocytes
  glucose transport: inhibited insulin-stimulated glucose transport
[2]; end of clamp (Example 1)
  expression of G-6Pase in the liver, ratio to GAPDH: no changes
IGF-1
  binding to 125I-labeled IGF-1: bound equally
PEPCK mRNA in the liver; end of clamp (Example 1)
  PEPCK mRNA in the liver, ratio to GAPDH: 3.2 ±0.3

## CC[C@H](C)[C@H](NC(=O)[C@H](CCC(=O)O)NC(=O)[C@H](CO)NC(=O)[C@@H](NC(=O)[C@H](CC(C)C)NC(=O)[C@H](CC(C)C)NC(=O)[C@H](CC(C)C)NC(=O)[C@H](CC(C)C)NC(=O)[C@H](CS)NC(=O)[C@H](CO)NC(=O)[C@H](Cc1ccccc1)NC(=O)CNC(=O)[C@H](CCCNC(=N)N)NC(=O)[C@@H]1CCCN1C(=O)[C@H](C)NC(=O)[C@@H](N)CCSC)[C@@H](C)O)C(=O)N[C@@H](CC(=O)O)C(=O)N[C@@H](CC(C)C)C(=O)N1CCC[C@H]1C(=O)N[C@H](C(=O)N[C@@H](CCCCN)C(=O)N[C@@H](CCCNC(=N)N)C(=O)N[C@@H](CCCNC(=N)N)C(=O)N[C@@H](C)C(=O)O)C(C)C [Humanin, maprgfscll lltseidlpv krra]
Sprague-Dawley rats [1]; ICV HN 0.1 μg/kg/min, basal and high insulin clamp
  hepatic glucose output: significant decrease in hepatic glucose output
Sprague-Dawley rats [1]; ICV infusion
  serum concentrations of HN during ICV infusion: undetectable
Sprague-Dawley rats [1]
  peripheral glucose infusion rate: increased
3T3L1 adipocytes
  glucose transport: significantly enhanced basal as well as insulin-stimulated glucose transport
Sprague-Dawley rats [3]; IV during hyperinsulinemic clamp, HN 0.375 mg/kg/hr, Colivelin 0.00375 mg/kg/hr
  HGP / hepatic insulin action: trend towards decreased HGP
Sprague-Dawley rats [3]; [6]
  increase in hepatic insulin sensitivity: 80%
  peripheral glucose uptake: unchanged
Sprague-Dawley rats [3]; peripherally infused humanin
  levels in rat CSF after peripheral infusion, range: 0 to 40 ng/mL
[2]; end of clamp (Example 2), listed as HN
  expression of G-6Pase in the liver, ratio to GAPDH: 0.87 ±0.37 and 0.89 ±0.28
[4]
  pAKT or pSTAT-3 in hepatocytes: did not elicit significant changes
Sprague-Dawley rats [5]
  peripheral insulin action: Neither HN, nor the non-BP3-binding F6AHN (at doses of 0.0375 mg/kg/hr) altered peripheral insulin action
PEPCK mRNA in the liver; end of clamp (Example 2)
  PEPCK mRNA in the liver, ratio to GAPDH: 12.4 ±2.7
